In patent US20060167057A1, “Compounds for the treatment of CNS and amyloid associated diseases” (priority 2004, published 2006):

Columns and labels:
Aβ40 = Aβ40 (Homo sapiens, UniProt P05067); test: Electrospray MS assay for binding to Aβ40; design: key: +++ = Strong (70 and higher % of free peptide); ++ = Moderate (50-70% of free peptide); + = Weak (25-50% of free peptide); 0 = None; details: 100 μM compound, 20 μM Aβ40, pH 7.4
From the text: (§1) The ability of a therapeutic compound of the invention to inhibit an interaction between an amyloidogenic protein and a glycoprotein or proteoglycan constituent of a basement membrane can be assessed by an in vitro binding assay, such as that described in U.S. Pat. No. 5,164,295, the contents of which are hereby incorporated by reference. Alternatively, the ability of a compound to bind to an amyloidogenic protein or to inhibit the binding of a basement membrane constituent (e.g. HSPG) to an amyloidogenic protein (e.g. Aβ) can be measured using a mass spectrometry assay where soluble protein, e.g Aβ, IAPP, β2M is incubated with the compound. A compound which binds to, e.g Aβ, will induce a change in the mass spectrum of the protein. Exemplary protocols for a mass spectrometry assay employing Aβ and IAPP can be found in the Examples, the results of which are provided in Table 5. The protocol can readily be modified to adjust the sensitivity of the data, e.g., by adjusting the amount of protein and/or compound employed. Thus, e.g., binding might be detected for test compounds noted as not having detectable binding employing less sensitive test protocols.
The binding ability between the compounds synthesized in Example 4 and Aβ40 in an aqueous solution is tested. The binding ability is attributed semi-quantitatively from the intensities of peptide-compound complex peaks observed in the Electrospray Mass Spectrum.
In the MS assay for Aβ40, samples are prepared as aqueous solutions adding 20% ethanol if necessary to solubilize in water. The stock solution of the peptide contains 50 μm Aβ40. In a typical experiment, 100 μM of an exemplary compound as prepared in Example 4 and 20 μM of solubilized Aβ40 are used. The ratio of the compound: peptide is 5:1. The pH value of each sample is adjusted to 7.4 (±0.2) by addition of 0.1% aqueous sodium hydroxide. The solutions are then analyzed by electrospray ionization mass spectrometry using a Waters ZQ 4000 mass spectrometer. Samples are introduced by direct infusion at a flow-rate of 25 μL/min within 2 hr. after sample preparation. The source temperature is kept at 70° C. and the cone voltage is 20 V for all the analysis. Data are processed using Masslynx 3.5 software. Aβ 1-40 (M.W.=4329) alone at 20 μM is analyzed at pH 7.32 as a control. Sodium clusters, which are typical of this system at +3 and +4 at m/z […] regions, may be observed. The MS assay gives data on the ability of compounds to bind to soluble Aβ, whereas the ThT, EM and CD assays give data on inhibition of fibrillogenesis.
In Table 7, a blank box means that a value was not determined for that compound in that assay.

IAPP = target: T1, IAPP (Homo sapiens, UniProt P10997); test: Electrospray MS assay for binding to IAPP; design: key to MS Results (IAPP binding), Water: 0 = None; details: 100 μM compound, 20 μM IAPP; for MS Results (IAPP binding), Water: pH 7.4, aqueous solution; for MS Results (IAPP binding), 20% Ethanol: pH 7.4, 20% ethanol in water
T1 construct: which is a 37 amino acid peptide, derived from a larger precursor peptide, called pro-IAPP
T1 sequence (P10997 34-70 limits assumed): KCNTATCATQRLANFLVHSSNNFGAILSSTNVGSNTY
From the text: as §1
The binding ability between the compounds synthesized in Example 4 and IAPP in an aqueous solution is tested. The binding ability is attributed semi-quantitatively from the intensities of peptide-compound complex peaks observed in the Electrospray Mass Spectrum.
In the MS assay for IAPP, samples are prepared as both aqueous solutions and as 20% ethanol in water solutions, including 100 μM of an exemplary compound as prepared in. Example 4 and 20 μM of solubilized IAPP. The stock solution contains 30 μM IAPP and the initial pH is 3.8. Generally, IAPP precipitates out of solution at concentrations higher than 50 μM and pH higher than ˜6 as soon as a test compound is mixed with the peptide. The pH value of each sample, therefore, is adjusted to 7.4 ([…]) by addition of 0.1% aqueous sodium hydroxide. The solutions aer then analyzed by electrospray ionization mass spectrometry using a Waters ZQ 4000 mass spectrometer. Samples are introduced by direct infusion at a flow-rate of 25 μL/min within 2 hr. after sample preparation. The source temperature is kept at 70° C. and the cone voltage is 20 V for all the analysis. Data are processed using Masslynx 3.5 software. IAPP (MW 3903.4) alone at 20 μM is analyzed at pH 7.32 as a control. Sodium clusters, which are typical of this system at +3 and +4 at m/z 1301.9 and 976.7 regions, may be observed. In Table 8, a blank box means that a value was not determined for that compound in that assay.

Aβ40, sequence (P05067 672-711 limits assumed): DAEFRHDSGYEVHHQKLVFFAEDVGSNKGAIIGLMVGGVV

MS Results (Aβ 1-40 binding) (Aβ40) | MS Results (IAPP binding), Water (IAPP) | SMILES | MS Results (IAPP binding), 20% Ethanol (IAPP)
– | + (+ = Weak (15-30% of free peptide)) | COc1ccc(-n2nnnc2[S+]([O-])Cc2cccc(C[C@H](N)C(=O)O)c2)cc1 (stereo partly shown) [drawing 516] | –
– | 0 | N[C@@H](Cc1cccc(C[S+]([O-])c2nnnn2-c2ccccc2)n1)C(=O)O (stereo partly shown) [drawing 522] | ++ (++ = Moderate (30-50% of free peptide))
– | 0 | N[C@@H](Cc1cccc(C[S+]([O-])c2nnc(-c3ccccc3)[nH]2)c1)C(=O)O (stereo partly shown) [drawing 526] | –
– | + (+ = Weak (15-30% of free peptide)) | CN(C)CCn1nnnc1SCc1cccc(C[C@H](N)C(=O)O)c1 [drawing 525] | + (+ = Weak (15-30% of free peptide))
– | 0 | N[C@@H](Cc1cccc(CSc2ncnc3[nH]ncc23)n1)C(=O)O [drawing 513] | –
– | + (+ = Weak (15-30% of free peptide)) | N[C@@H](Cc1cccc(CS(=O)(=O)c2nc3ccccc3[nH]2)c1)C(=O)O [drawing 521] | –

The next lines start with the molecule.

SMILES | MS Results (Aβ 1-40 binding) (Aβ40) | MS Results (IAPP binding), Water (IAPP) | MS Results (IAPP binding), 20% Ethanol (IAPP)
N[C@@H](Cc1cccc(CSc2ncnc3[nH]ncc23)n1)C(=O)O [drawing 492] | + (+ = Weak (25-50% of free peptide)) | – | –
N[C@@H](Cc1cccc(CSc2nnc(-c3ccncc3)o2)c1)C(=O)O [drawing 502] | + (+ = Weak (25-50% of free peptide)) | – | –
N[C@@H](Cc1cccc(CSc2nnnn2-c2ccccc2)c1)C(=O)O [drawing 509] | – | + (+ = Weak (15-30% of free peptide)) | ++ (++ = Moderate (30-50% of free peptide))
N[C@@H](Cc1cccc(CS(=O)(=O)c2nc3ccccc3[nH]2)c1)C(=O)O [drawing 499] | ++ (++ = Moderate (50-70% of free peptide)) | – | –
COc1ccc(-n2nnnc2[S+]([O-])Cc2cccc(C[C@H](N)C(=O)O)c2)cc1 (stereo partly shown) [drawing 494] | 0 | – | –
N[C@@H](Cc1cccc(CSc2nnnn2-c2ccc(O)cc2)c1)C(=O)O [drawing 501] | + (+ = Weak (25-50% of free peptide)) | – | –
N[C@@H](Cc1cccc(CSc2nc3ccccc3[nH]2)n1)C(=O)O [drawing 491] | + (+ = Weak (25-50% of free peptide)) | – | –
COc1ccc(-n2nnnc2[S+]([O-])Cc2cccc(C[C@H](N)C(=O)O)c2)cc1 (stereo partly shown) [drawing 503] | + (+ = Weak (25-50% of free peptide)) | – | –
N[C@@H](Cc1cccc(CSc2nc3ccccc3[nH]2)n1)C(=O)O [drawing 512] | – | 0 | –
N[C@@H](Cc1cccc(CSc2nnnn2-c2ccc(O)cc2)c1)C(=O)O [drawing 523] | – | ++ (++ = Moderate (30-50% of free peptide)) | +++ (+++ = Strong (50 and higher % of free peptide))
N[C@@H](Cc1cccc(CSc2nnnn2-c2ccccc2)c1)C(=O)O [drawing 488] | + (+ = Weak (25-50% of free peptide)) | – | –
N[C@@H](Cc1cccc(CSc2nc3ccc(Cl)cc3s2)n1)C(=O)O [drawing 520] | – | +++ (+++ = Strong (50 and higher % of free peptide)) | –
